The subject of series [1] is COVID-19 patients. In words: Retrospective electronic health record analysis of mortality (Cerner Real World Data COVID-19), propensity score matched. It is filed as in vivo, human. The conditions noted are these: for Mortality, N (%): cohort before propensity score matching, moderate-intensity statin dose; for Mortality rate, treated patients / No. died/No. treated, treated patients: statin at moderate dose, COVID-19 patients; for reduction in the RR: treated vs matched untreated controls. On the procedure:
Data from the Cerner Real World Data COVID-19 deidentified EHR database containing records of 490,373 patients with a diagnosis of COVID-19 or COVID-19 exposure across 87 health care centers were analyzed. The following statins were included: atorvastatin, fluvastatin, lovastatin, pitavastatin, pravastatin, rosuvastatin, and simvastatin. Primary outcome was death after the onset of COVID-19. Inclusion criteria, considered comorbidities, and statistical analysis are detailed in the Methods in S1 Text.
Encounters include laboratory and pharmacy information (e.g., medication orders, dispensing), which are date and time stamped. Only patients with COVID-19 diagnosis confirmed by a laboratory test for SARS-CoV-2 (nucleic acid amplification tests and immunoassays) and/or by International Statistical Classification of Diseases and Related Health Problems, Tenth Revision (ICD-10) code U07.1 (for COVID-19 confirmed by laboratory testing),^1 with known demographic characteristics (age, sex, and race and ethnicity), and who were 18 years or older from January to September 2020 were included in our study (n = 90,834). Patients with COVID-19, with a statin medication dose consistent with moderate-intensity therapy,^2 and with a medication order status of active or completed and without a designation of as needed (ie, medication taken only when needed) at least once within a period of 10 days before and 7 days after their first recorded COVID-19 diagnosis were compared with patients with COVID-19 and no statin orders.
Considered comorbidities, identified by using International Classification of Diseases, Ninth Revision, Clinical Modification (ICD-9-CM), and International Statistical Classification of Diseases, Tenth Revision, Clinical Modification (ICD-10-CM), diagnosis codes, included hypertension (I10-I16 and 401.X-405.X), diabetes (O24, E11, E10, E13, and 250.X), chronic obstructive pulmonary disease (J44, 491.2, 493.2, and 496.X), obesity (E66.0, E66.1, E66.2, E66.8, E66.9, 278.00, 278.01, 278.03, Z68.3, Z68.4, V85.3, and V85.4), heart conditions (I20.X, I21.X, I22.X, I23.X, I24.X, I25.X, I42.X, I50.X, 410.X, 411.X, 412.X, 413.X, 414.X, 428.X, and 425.X), cerebrovascular disease (I6X.X, G45.X, G46.X, and 43X.X), cancer (C00-C96, 14X.X, 15X.X, 16X.X, 17X.X, 18X.X, 19X.X, and 20X.X), and chronic kidney disease (N18.X and 585.X). Prescription indications, identified by using ICD-9-CM and ICD-10-CM codes, included high cholesterol/hyperlipidemia (E78.0, E78.1, E78.2, E78.3, E78.4, E78.5, 272, 277). Body mass index (calculated as weight in kilograms divided by height in meters squared) values were identified by Logical Observation Identifiers Names and Codes 39156-5 and 89270-3. Body mass index values of at least 30 were used to confirm the diagnosis of obesity by ICD-9-CM or ICD-10-CM code. The mean dose prescribed for statins-treated patients was calculated for each statin. […] For patients receiving pravastatin, the mean (SD) dose was 48.25 (16.21) mg/d.
The R Matchit package, version 3.0.2 (R Program for Statistical Computing) was used to perform propensity score matching with a nearest-neighbor method to match patients treated with a statin with control patients (1:1 ratio), atorvastatin-treated patients with control patients (1:1 ratio), lovastatin-treated patients with control patients (1:10 ratio), pravastatin-treated patients with control patients (1:10 ratio), rosuvastatin-treated patients with control patients (1:10 ratio), and simvastatin-treated patients with control patients (1:5 ratio), with varying ratios for the different statins to have sufficient power for the comparisons and increase precision. […]

In series [2] the test system is SARS-CoV-2 (WA-1 strain). The series can be described thus: SARS-CoV-2 WT infection of Vero6 cells (CellTiter-Glo). The conditions noted are these: MOI 0.01, 3 days, mean of two independent experiments; for IC50: Severe acute respiratory syndrome coronavirus 2, 72 h, relative IC50, WT virus; for Max Inhibition (%): WT virus. Type of series: cell-based.
For series [3], the system named is SARS-CoV-2 GFP. The series can be described thus: microbe, parasite or virus in culture. The conditions noted are these: for Max Inhibition (%) / IC50: mean of two independent experiments; for IC50: Severe acute respiratory syndrome coronavirus 2, 48 h, relative IC50. It is filed as cell-based.
Series [4] is described as follows: in vitro. The conditions noted are these: African green monkey.
The conditions of series [5]: cited from earlier work.
In series [6] the test system is Vero E6 (Vero6) cells. The conditions noted are these: uninfected Vero6 cells; mean of two independent experiments.
The conditions of series [7]: cited from earlier work. The source holds these as a separate data set.
The conditions of series [8]: cited from earlier work. The source holds these as a separate data set.
The subject of series [9] is SARS-CoV-2. Details: method as in earlier work. The conditions noted are these: VeroE6 cells; cited from earlier work.
In series [10] the test system is SARS-CoV-2. The series can be described thus: Preliminary in vivo study in SARS-CoV-2-infected mice.
In series [11] the test system is SARS-CoV-2. In words: Preliminary in vivo study in SARS-CoV-2-infected hamsters.
Series [12] has as its system HCoV-OC43. In words: HCoV-OC43 infection of HUVECs, viral load. Type of series: cell-based, human coronavirus OC43. The conditions noted are these: HUVEC cells, 1 or 5 μM.
Protocol: (§1) To measure the impact of selected drugs on HCoV-OC43 infection, 96-well plates seeded with human umbilical vein endothelial cells (HUVECs) were infected with HCoV-OC43 and treated with drugs (Methods in S1 Text). Viral load, Hoechst fluorescence, and IP-10 measurements were measured and normalized to vehicle control samples for each assay. Each group was compared to vehicle controls using the Brown-Forsythe and Welch ANOVA tests and corrected for multiple comparisons using a Dunnett T3 test.
(§2) To measure the impact of selected drugs on HCoV-OC43 infection, 96-well plates seeded with Human Umbilical Vein Endothelial Cells (HUVEC) were infected with HCoV-OC43 and treated with drugs. Uninfected and vehicle treated cells (0.1% DMSO) are included as controls. HUVEC plates were pre-dosed with drugs overnight at 34°C at indicated concentrations (100 µl/well). The following day, HCoV-OC43 was added to the wells (100 µl/well) at an MOI of 0.2 and incubated for 3 h at 34°C. […] After five PBS washes, Hoechst fluorescence was read at 355 nm excitation and 450 nm emission using a Synergy H1 Spectrophotometer. Subsequently, viral load was analyzed using the ImmPACT DAB Peroxidase (HRP) Substrate kit (Vector Labs) according to the manufacturer’s instructions, and DAB absorbance was read at 465 nm.
The subject of series [13] is IP-10. The series can be described thus: IP-10 production in OC43-infected HUVECs. It is filed as cell-based, human. The conditions noted are these: 1 or 5 μM.
Protocol: as §1, §2

The text below walks through data of publication PMC10191356, “Target-agnostic drug prediction integrated with medical record analysis uncovers differential associations of statins with increased survival in COVID-19 patients” (PLOS Computational Biology, 2023).

On to `CC(C)c1c(C(=O)Nc2ccccc2)c(-c2ccccc2)c(-c2ccc(F)cc2)n1CC[C@@H](O)C[C@@H](O)CC(=O)O` [atorvastatin], for which, in series [1], the “Mortality, N (%)” value is recorded as 431 (16.1) %; the “Mortality rate, treated patients” value came to 16.1%; the “No. died/No. treated, treated patients” value is listed as 431/2676; the “reduction in the RR” value turned out to be 14%. In addition, in series [2], the IC50 was 1.9 µM and the “Max Inhibition (%)” value came out at 24.4%.
On to `CC(C)n1c(/C=C/C(O)CC(O)CC(=O)O)c(-c2ccc(F)cc2)c2ccccc21` (centres unmarked) [fluvastatin], for which, in [3], the “Max Inhibition (%)” value is recorded as 19%. In [4], this molecule yielded a CC50 of 10.6 µM. Moreover, the “Protein binding (%)” value in [5] is given as greater than 99%. In addition, the “Max Toxicity (%)” value in [6] is 80.4%. Besides, in series [7], the Active metabolites entry is “No”, the “Bioavailability (%)” value is 19 to 29%, the “Elimination half-life” value is 0.5 to 2.3 h and the Metabolism entry is recorded as “CYP2C9”. The Solubility result in [8] was “Lipophilic”.
As to `CC[C@H](C)C(=O)O[C@H]1C[C@@H](C)C=C2C=C[C@H](C)[C@H](CC[C@@H]3C[C@@H](O)CC(=O)O3)[C@H]21` [lovastatin], in series [1], the “Mortality, N (%)” value is listed as 15 (21.4) %; the “Mortality rate, treated patients” value was 21.4%; the “No. died/No. treated, treated patients” value was 15/70. Moreover, in [3], 7.8 µM corresponded to half-maximal inhibition (IC50) and the “Max Inhibition (%)” value amounted to 55.8%. In [4], this molecule displayed a CC50 of 16.9 µM. In series [5], the “Protein binding (%)” value is greater than 95%. Moreover, the “Max Toxicity (%)” value in series [6] turned out to be 74.2%. Besides, in [7], the Active metabolites result is “Yes”, the Clearance result was “Hepatic”, the “Elimination half-life” value was 2.9 h and the Metabolism result is given as “CYP3A4”. Further, in series [8], the Solubility result is listed as “Lipophilic”.
Consider `O=C(O)C[C@H](O)C[C@H](O)/C=C/c1c(C2CC2)nc2ccccc2c1-c1ccc(F)cc1` [pitavastatin], for which the “Mortality, N (%)” value in [1] is recorded as 4 (30.8) %. Besides, in series [2], the IC50 is 1.6 µM and the “Max Inhibition (%)” value is 19.1%. The CC50 in series [4] was 0.3 µM. For the same molecule, the “Protein binding (%)” value in [5] is on record as 99%. Also, the “Max Toxicity (%)” value in series [6] amounted to 83.6%. In addition, in series [7], the Active metabolites result is reported as “Yes”, the “Bioavailability (%)” value is on record as 51%, the Clearance result is given as “Hepatic” and the “Elimination half-life” value was 12 h. Moreover, the Metabolism result in series [7] was “Non-CYP450 Limited CYP2C9/19”. Moreover, the Solubility entry in series [8] is given as “Lipophilic”.
As to `CC[C@H](C)C(=O)O[C@H]1C[C@H](O)C=C2C=C[C@H](C)[C@H](CC[C@@H](O)C[C@@H](O)CC(=O)O)[C@H]21` [pravastatin], in series [1], the “Mortality, N (%)” value is 71 (18.5) %; the “Mortality rate, treated patients” value came to 18.5%; the “No. died/No. treated, treated patients” value is listed as 71/383. Moreover, the “Relative risk of death (95% CI)” value in series [1] (treated vs propensity score matched untreated controls, iteration with the least significant result) is given as 0.78 (0.61–1.00). In series [3], the “Max Inhibition (%)” value came to 21.7%. Also, in series [5], the “Protein binding (%)” value is on record as 43 to 55%. Besides, in [6], the “Max Toxicity (%)” value is 4%. Also, in [7], the Active metabolites result is “No”; the “Bioavailability (%)” value was 18%; the Clearance result is “Hepatic and renal”; the “Elimination half-life” value was 1.3 to 2.8 h. In addition, the Metabolism result in [7] is “Non-CYP450”. Besides, in series [8], the Solubility result is on record as “Hydrophilic”.
As for `CC(C)c1nc(N(C)S(C)(=O)=O)nc(-c2ccc(F)cc2)c1/C=C/[C@@H](O)C[C@@H](O)CC(=O)O` [rosuvastatin], in [1], the “Mortality, N (%)” value was 53 (13.1) %; the “Mortality rate, treated patients” value was found to be 13.1%; the “No. died/No. treated, treated patients” value is given as 53/404; the “reduction in the RR” value came out at 41%. For the same molecule, the “effects on SARS-CoV-2 replication” value in series [9] is reported as “inhibitory effects”. In addition, in series [7], the Active metabolites result was “No”; the Clearance entry is “Hepatic and renal”; the Metabolism entry was “Non-CYP450 Limited CYP2C9/8”. Further, the Solubility entry in series [8] is on record as “Hydrophilic”.
In the case of `CCC(C)(C)C(=O)O[C@H]1C[C@@H](C)C=C2C=C[C@H](C)[C@H](CC[C@@H](O)C[C@@H](O)CC(=O)O)[C@H]21` [simvastatin hydroxy acid], in series [3], the “inhibition of SARS-CoV-2 infection relative to pro-drug form of simvastatin” value is on record as “much weaker inhibition”.
Take `CCC(C)(C)C(=O)O[C@H]1C[C@@H](C)C=C2C=C[C@H](C)[C@H](CC[C@@H]3C[C@@H](O)CC(=O)O3)[C@H]21` [simvastatin]: in series [1], the “Mortality, N (%)” value is reported as 153 (19.5) %; the “Mortality rate, treated patients” value turned out to be 19.5%; the “No. died/No. treated, treated patients” value is on record as 153/784; the “reduction in the RR” value was determined as 17%. In addition, in [3], the IC50 was found to be 0.8 µM and the “Max Inhibition (%)” value is reported as 93.7%. For the same molecule, the “effect on infection and host response” value in series [10] (SARS-CoV-2-infected mice, very preliminary) is recorded as “no effect”. In series [10] (mice, compared with in vitro IC50), the plasma levels entry is “greater than the IC50”. Further, in [11] (SARS-CoV-2-infected hamsters, very preliminary), the “effect on infection and host response” value was “no effect”. Further, the plasma levels result in [11] (hamsters, compared with in vitro IC50) is “greater than the IC50”. In [4], this molecule showed a CC50 of 6.5 µM. Also, the “Protein binding (%)” value in series [5] is recorded as 94 to 98%. Moreover, the “Max Toxicity (%)” value in series [6] was found to be 78.5%. Further, the “OC43 infection (viral load)” value in [12] is listed as “inhibits”. For the same molecule, in series [7], the Clearance result is on record as “Hepatic” and the “Elimination half-life” value was 2 to 3 h. Moreover, in [13], the “cytokine (IP-10) production” value is reported as “potently reduced”.
